# Test results reported in ChEMBL document CHEMBL3769367, “Orexin Receptor Antagonists: New Therapeutic Agents for the Treatment of Insomnia” (J Med Chem, 2016).
# Experiments:
# [1] = target: T1, Orexin/Hypocretin receptor type 1 (Homo sapiens, UniProt O43613); assay: Binding affinity to OX1R (unknown origin)
# T1 sequence (O43613 whole entry): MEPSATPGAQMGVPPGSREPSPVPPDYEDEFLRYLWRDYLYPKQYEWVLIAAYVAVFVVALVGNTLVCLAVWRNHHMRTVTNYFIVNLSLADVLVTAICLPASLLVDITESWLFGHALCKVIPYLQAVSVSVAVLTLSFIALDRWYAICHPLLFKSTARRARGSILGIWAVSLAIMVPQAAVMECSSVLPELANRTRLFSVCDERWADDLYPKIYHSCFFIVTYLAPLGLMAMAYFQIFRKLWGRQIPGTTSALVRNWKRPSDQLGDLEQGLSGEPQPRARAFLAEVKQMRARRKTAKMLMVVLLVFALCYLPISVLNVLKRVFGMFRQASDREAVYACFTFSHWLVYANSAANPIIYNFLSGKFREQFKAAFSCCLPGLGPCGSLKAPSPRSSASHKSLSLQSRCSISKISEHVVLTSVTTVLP
# Orexin receptor type 2 [2] = target: T2, Orexin receptor type 2 (Homo sapiens, UniProt O43614); assay: Binding affinity to OX2R (unknown origin)
# T2 sequence (O43614 whole entry): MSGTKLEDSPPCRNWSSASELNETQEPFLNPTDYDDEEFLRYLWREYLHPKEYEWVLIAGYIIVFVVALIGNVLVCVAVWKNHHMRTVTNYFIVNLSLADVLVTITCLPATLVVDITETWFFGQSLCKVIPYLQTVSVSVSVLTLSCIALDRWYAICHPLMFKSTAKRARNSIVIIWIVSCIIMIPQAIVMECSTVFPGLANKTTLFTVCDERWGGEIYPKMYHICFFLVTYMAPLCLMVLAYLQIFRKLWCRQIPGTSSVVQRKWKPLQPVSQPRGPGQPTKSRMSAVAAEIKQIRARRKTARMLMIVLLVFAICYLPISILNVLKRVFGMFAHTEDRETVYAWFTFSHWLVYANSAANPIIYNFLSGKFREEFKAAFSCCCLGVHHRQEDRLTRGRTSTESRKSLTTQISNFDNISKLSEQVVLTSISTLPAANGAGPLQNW
# [3] = target: T1, Orexin/Hypocretin receptor type 1; assay: Antagonist activity at OX1R (unknown origin)
# Orexin receptor type 2 [4] = target: T2, Orexin receptor type 2; assay: Antagonist activity at OX2R (unknown origin)
# Homo sapiens = organism: Homo sapiens; assay: Selectivity ratio of IC50 for OX2R (unknown origin) to IC50 for OX1R (unknown origin)
# [5] = target: T3, Orexin receptor type 2 (Homo sapiens) (UniProt O43614)
# T3 sequence (whole entry): T2 sequence (O43614 whole entry)
# Orexin receptor type 2 [6] = target: T2, Orexin receptor type 2; assay: Antagonist activity at human OX2R expressed in CHO cells assessed as inhibition of orexin-A-induced intracellular calcium release by FLIPR assay; type: functional, cell-based
# Cytochrome P450 3A4 = Cytochrome P450 3A4 (Homo sapiens, UniProt P08684); assay: Inhibition of CYP3A4 (unknown origin); type: ADME
# [7] = target: T1, Orexin/Hypocretin receptor type 1; assay: Antagonist activity at human OX1R expressed in CHO cells assessed as inhibition of orexin-A-induced intracellular calcium release by FLIPR assay; type: functional, cell-based
# Sequence of Cytochrome P450 3A4 (P08684 whole entry): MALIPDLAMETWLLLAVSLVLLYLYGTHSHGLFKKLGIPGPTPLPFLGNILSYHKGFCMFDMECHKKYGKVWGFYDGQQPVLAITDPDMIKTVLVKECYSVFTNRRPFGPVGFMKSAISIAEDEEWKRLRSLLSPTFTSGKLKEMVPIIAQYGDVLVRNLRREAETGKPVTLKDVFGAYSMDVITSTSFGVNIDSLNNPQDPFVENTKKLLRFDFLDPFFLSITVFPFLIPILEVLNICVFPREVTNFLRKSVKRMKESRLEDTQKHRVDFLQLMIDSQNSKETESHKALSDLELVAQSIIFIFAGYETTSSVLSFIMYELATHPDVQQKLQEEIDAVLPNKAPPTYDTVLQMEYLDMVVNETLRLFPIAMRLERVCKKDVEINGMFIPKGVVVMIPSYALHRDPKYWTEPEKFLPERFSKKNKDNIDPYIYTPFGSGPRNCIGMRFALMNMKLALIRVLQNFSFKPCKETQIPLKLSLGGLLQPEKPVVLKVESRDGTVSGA
Ki [1],Ki (Orexin receptor type 2 [2]),SMILES,other results
8 nM,4 nM,Cc1nc(C(=O)N2CCCCC2CCOc2ccc(F)cc2)c(-c2ccccc2)s1 (stereo not given),
34 nM,22 nM,Cc1ccc(-n2nccn2)c(C(=O)N2C[C@@H](COc3ccc(F)c(C)c3)CC[C@H]2C)c1 (racemic),
,,Cc1nc(C(=O)N2CCCC[C@H]2CCOc2ccc(F)cc2)c(-c2ccccc2)s1,IC50 [3]: 12 nM; IC50 (Orexin receptor type 2 [4]): 14 nM
,,COc1ccc(CC2c3cc(OC)c(OC)cc3CCN2CC(=O)NCc2ccccc2)cc1OC (stereo not given),Ratio IC50 (Homo sapiens): 68
,,CC1(C)OC[C@H](NC(=O)Nc2ccc(Br)cc2Br)[C@H](c2ccccc2)O1,pKb [5]: 8.3
,,COc1ccc(S(=O)(=O)N2CCC[C@H]2C(=O)Nc2cccc(SC)c2)cc1,IC50 (Orexin receptor type 2 [6]): 7 nM; IC50 (Cytochrome P450 3A4): 8000 nM; IC50 [7]: 31 nM
15 nM,16 nM,Cc1ccc(-n2nccn2)c(C(=O)N2CCCC(COc3ccc(F)c(C)c3)C2)c1 (stereo not given),
0.3 nM,0.1 nM,Cc1ccc(-n2nccn2)c(C(=O)N2C[C@H](COc3ccc(F)c(C)c3)CC[C@H]2C)c1 (racemic),
